Patent US20250353891A1 (MEDIMMUNE LIMITED, priority 2022, published 2025)
Starred links: 1 amine or outer side, 2 acyl side, 3 side chain; linkers in the order of their positions; H or OH if unused. Non-standard residues stand in square brackets, D forms with d. Residues, ends and D or L forms follow the SMILES beside them. Groups on a side chain read outwards from the residue. *: point of attachment. C20 diacid = O=C(O)CCCCCCCCCCCCCCCCCCC(=O)*; C18 diacid = O=C(O)CCCCCCCCCCCCCCCCC(=O)*; γGlu = O=C(O)[C@H](CCC(=O)[*:2])N[*:1]; αMeF = C[C@](N)(Cc1ccccc1)C(=O)O; AEEA = NCCOCCOCC(=O)O; Aib = CC(C)(N)C(=O)O

Key:
[1] = target: human glucagon receptor (hGCGR) (Homo sapiens, UniProt P47871); test: cAMP production (HTRF) in CHO cells expressing hGCGR; assay type: cell-based; parameters: expressed in transfected cells; settings: Table 7, peptides modified at position 20; cAMP in CHO hGCGR cells; geometric mean; read-out: hGluc-R EC50
Chain of human glucagon receptor (hGCGR) (P47871 26-477): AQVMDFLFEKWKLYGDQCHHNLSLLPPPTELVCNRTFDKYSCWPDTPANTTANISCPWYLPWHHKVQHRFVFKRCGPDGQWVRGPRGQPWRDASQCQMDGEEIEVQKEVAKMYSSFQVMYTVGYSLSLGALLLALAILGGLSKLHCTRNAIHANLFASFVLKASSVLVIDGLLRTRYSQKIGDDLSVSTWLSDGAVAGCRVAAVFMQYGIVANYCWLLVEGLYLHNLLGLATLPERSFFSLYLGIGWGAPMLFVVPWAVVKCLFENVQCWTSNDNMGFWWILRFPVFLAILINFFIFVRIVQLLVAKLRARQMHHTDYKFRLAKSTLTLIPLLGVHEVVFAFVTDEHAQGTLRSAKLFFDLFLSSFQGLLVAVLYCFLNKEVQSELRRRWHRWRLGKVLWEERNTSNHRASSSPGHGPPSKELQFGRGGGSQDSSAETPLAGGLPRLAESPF
Summary of the method: (§1)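 Read-out: HTRF cAMP (anti-cAMP cryptate donor, cAMP-d2 acceptor in conjugate/lysis buffer), converted to % Delta F and fitted by 4-parameter logistic for EC50. Cell densities were 1×10^5 cells/mL (hGLP-1R) or 2×10^5 cells/mL (hGCGR). Stimulation lasted 30 min at room temperature.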

[2] = target: human GLP-1 receptor (hGLP-1R) (Homo sapiens, UniProt P43220); test: cAMP production (HTRF) in CHO cells expressing hGLP-1R; assay type: cell-based; parameters: expressed in transfected cells; settings: for EC50: Table 7, peptides modified at position 20, cAMP in CHO hGLP-1R cells, geometric mean, read-out: hGLP-1R EC50; for % Relative Potency Ratio: Table 7, % GLP-1R activity relative to GLP-1 / % GlucR activity relative to glucagon
Chain of human GLP-1 receptor (hGLP-1R) (P43220 24-463): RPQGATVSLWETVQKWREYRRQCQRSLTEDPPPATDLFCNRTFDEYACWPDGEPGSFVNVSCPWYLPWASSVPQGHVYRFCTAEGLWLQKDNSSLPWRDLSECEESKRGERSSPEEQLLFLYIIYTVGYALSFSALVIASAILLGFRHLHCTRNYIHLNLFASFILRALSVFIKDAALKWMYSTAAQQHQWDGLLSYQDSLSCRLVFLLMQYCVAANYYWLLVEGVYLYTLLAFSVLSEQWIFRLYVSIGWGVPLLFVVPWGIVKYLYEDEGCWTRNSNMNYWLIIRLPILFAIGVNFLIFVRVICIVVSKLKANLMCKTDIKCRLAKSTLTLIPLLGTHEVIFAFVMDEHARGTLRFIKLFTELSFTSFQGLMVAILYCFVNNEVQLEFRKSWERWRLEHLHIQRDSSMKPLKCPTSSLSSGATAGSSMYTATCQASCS
Summary of the method: as §1

SMILES | EC50 [1] | EC50 [2] | % Relative Potency Ratio [2]
CC[C@H](C)[C@H](NC(=O)[C@H](CO)NC(=O)[C@H](CCC(=O)O)NC(=O)[C@@H](NC(=O)[C@](C)(Cc1ccccc1)NC(=O)[C@H](CC(=O)O)NC(=O)[C@H](CCCCNC(=O)COCCOCCNC(=O)COCCOCCNC(=O)CC[C@H](NC(=O)CC[C@H](NC(=O)CCCCCCCCCCCCCCCCC(=O)O)C(=O)O)C(=O)O)NC(=O)[C@H](C)NC(=O)C(C)(C)NC(=O)[C@H](CCCNC(=N)N)NC(=O)[C@H](CO)NC(=O)[C@H](CC(=O)O)NC(=O)[C@H](CC(C)C)NC(=O)[C@](C)(Cc1ccccc1)NC(=O)[C@H](CCCCN)NC(=O)[C@H](CO)NC(=O)[C@@H](NC(=O)[C@H](CC(=O)O)NC(=O)[C@H](CO)NC(=O)[C@@H](NC(=O)[C@](C)(Cc1ccccc1)NC(=O)[C@H](CO)NC(=O)CNC(=O)[C@H](Cc1c[nH]cn1)NC(=O)C(C)(C)NC(=O)[C@@H](N)Cc1c[nH]cn1)[C@@H](C)O)C(C)C)C(C)C)C(=O)N[C@@H](C)C(=O)N[C@@H](CC(N)=O)C(=O)N[C@H](C(N)=O)[C@@H](C)O [Peptide 250] (H-H[Aib]HGS[αMeF]TSDVSK[αMeF]LDSR[Aib]AK([AEEA-AEEA-γGlu-γGlu-C18 diacid])D[αMeF]VESIANT-NH2) | 1.57 nM | 0.601 nM | 5.2
CC[C@H](C)[C@H](NC(=O)[C@H](CO)NC(=O)[C@H](CCC(=O)O)NC(=O)[C@@H](NC(=O)[C@H](Cc1ccccc1)NC(=O)[C@H](CC(=O)O)NC(=O)[C@H](CCCCNC(=O)COCCOCCNC(=O)COCCOCCNC(=O)CC[C@H](NC(=O)CCCCCCCCCCCCCCCCCCC(=O)O)C(=O)O)NC(=O)[C@H](C)NC(=O)C(C)(C)NC(=O)[C@H](CCCNC(=N)N)NC(=O)[C@H](CO)NC(=O)[C@H](CC(=O)O)NC(=O)[C@H](CC(C)C)NC(=O)[C@](C)(Cc1ccccc1)NC(=O)[C@H](CCCCN)NC(=O)[C@H](CO)NC(=O)[C@@H](NC(=O)[C@H](CC(=O)O)NC(=O)[C@H](CO)NC(=O)[C@@H](NC(=O)[C@](C)(Cc1ccccc1)NC(=O)[C@H](CO)NC(=O)CNC(=O)[C@H](Cc1c[nH]cn1)NC(=O)C(C)(C)NC(=O)[C@@H](N)Cc1c[nH]cn1)[C@@H](C)O)C(C)C)C(C)C)C(=O)N[C@@H](C)C(=O)N[C@@H](CC(N)=O)C(=O)N[C@H](C(N)=O)[C@@H](C)O [Peptide 252] (H-H[Aib]HGS[αMeF]TSDVSK[αMeF]LDSR[Aib]AK([AEEA-AEEA-γGlu-C20 diacid])DFVESIANT-NH2) | 1.31 nM | 0.119 nM | 21.7
CC[C@H](C)[C@H](NC(=O)[C@H](CO)NC(=O)[C@H](CCC(=O)O)NC(=O)[C@@H](NC(=O)[C@H](Cc1ccccc1)NC(=O)[C@H](CC(=O)O)NC(=O)[C@H](CCCCNC(=O)COCCOCCNC(=O)CC[C@H](NC(=O)CCCCCCCCCCCCCCCCC(=O)O)C(=O)O)NC(=O)[C@H](C)NC(=O)C(C)(C)NC(=O)[C@H](CCCNC(=N)N)NC(=O)[C@H](CO)NC(=O)[C@H](CC(=O)O)NC(=O)[C@H](CC(C)C)NC(=O)[C@](C)(Cc1ccccc1)NC(=O)[C@H](CCCCN)NC(=O)[C@H](CO)NC(=O)[C@@H](NC(=O)[C@H](CC(=O)O)NC(=O)[C@H](CO)NC(=O)[C@@H](NC(=O)[C@](C)(Cc1ccccc1)NC(=O)[C@H](CO)NC(=O)CNC(=O)[C@H](Cc1c[nH]cn1)NC(=O)C(C)(C)NC(=O)[C@@H](N)Cc1c[nH]cn1)[C@@H](C)O)C(C)C)C(C)C)C(=O)N[C@@H](C)C(=O)N[C@@H](CC(N)=O)C(=O)N[C@H](C(N)=O)[C@@H](C)O [Peptide 253] (H-H[Aib]HGS[αMeF]TSDVSK[αMeF]LDSR[Aib]AK([AEEA-γGlu-C18 diacid])DFVESIANT-NH2) | 0.0531 nM | 0.0755 nM | 1.4

Further compounds by falling EC50 [1], results first:

EC50 [1] | EC50 [2] | % Relative Potency Ratio [2] | SMILES
0.248 nM | 0.0798 nM | 6.2 | CC[C@H](C)[C@H](NC(=O)[C@H](CO)NC(=O)[C@H](CCC(=O)O)NC(=O)[C@@H](NC(=O)[C@H](Cc1ccccc1)NC(=O)[C@H](CC(=O)O)NC(=O)[C@H](CCCCNC(=O)COCCOCCNC(=O)COCCOCCNC(=O)CC[C@H](NC(=O)CCCCCCCCCCCCCCCCC(=O)O)C(=O)O)NC(=O)[C@H](C)NC(=O)C(C)(C)NC(=O)[C@H](CCCNC(=N)N)NC(=O)[C@H](CO)NC(=O)[C@H](CC(=O)O)NC(=O)[C@H](CC(C)C)NC(=O)[C@](C)(Cc1ccccc1)NC(=O)[C@H](CCCCN)NC(=O)[C@H](CO)NC(=O)[C@@H](NC(=O)[C@H](CC(=O)O)NC(=O)[C@H](CO)NC(=O)[C@@H](NC(=O)[C@](C)(Cc1ccccc1)NC(=O)[C@H](CO)NC(=O)CNC(=O)[C@H](Cc1c[nH]cn1)NC(=O)C(C)(C)NC(=O)[C@@H](N)Cc1c[nH]cn1)[C@@H](C)O)C(C)C)C(C)C)C(=O)N[C@@H](C)C(=O)N[C@@H](CC(N)=O)C(=O)N[C@H](C(N)=O)[C@@H](C)O [Peptide 251] (H-H[Aib]HGS[αMeF]TSDVSK[αMeF]LDSR[Aib]AK([AEEA-AEEA-γGlu-C18 diacid])DFVESIANT-NH2; N-terminus assumed)
0.146 nM | 0.148 nM | 2.0 | CC[C@H](C)[C@H](NC(=O)C(C)(C)NC(=O)[C@H](CCC(N)=O)NC(=O)[C@@H](NC(=O)[C@](C)(Cc1ccccc1)NC(=O)[C@H](CC(=O)O)NC(=O)[C@H](CCCCNC(=O)COCCOCCNC(=O)COCCOCCNC(=O)CC[C@H](NC(=O)CCCCCCCCCCCCCCCCC(=O)O)C(=O)O)NC(=O)[C@H](C)NC(=O)[C@H](C)NC(=O)[C@H](CCC(N)=O)NC(=O)[C@H](CO)NC(=O)[C@H](CC(=O)O)NC(=O)[C@H](CC(C)C)NC(=O)[C@](C)(Cc1ccccc1)NC(=O)[C@H](CCCCN)NC(=O)[C@H](CO)NC(=O)[C@@H](NC(=O)[C@H](CC(=O)O)NC(=O)[C@H](CO)NC(=O)[C@@H](NC(=O)[C@](C)(Cc1ccccc1)NC(=O)[C@H](CO)NC(=O)CNC(=O)[C@H](Cc1c[nH]cn1)NC(=O)C(C)(C)NC(=O)[C@@H](N)Cc1c[nH]cn1)[C@@H](C)O)C(C)C)C(C)C)C(=O)N[C@@H](C)C(=O)N[C@@H](CC(N)=O)C(=O)N[C@H](C(N)=O)[C@@H](C)O [Peptide 255] (H-H[Aib]HGS[αMeF]TSDVSK[αMeF]LDSQAAK([AEEA-AEEA-γGlu-C18 diacid])D[αMeF]VQ[Aib]IANT-NH2; N-terminus assumed)
0.125 nM | 0.102 nM | 2.4 | CC[C@H](C)[C@H](NC(=O)[C@H](CO)NC(=O)[C@H](CCC(=O)O)NC(=O)[C@@H](NC(=O)[C@H](Cc1ccccc1)NC(=O)[C@H](CC(=O)O)NC(=O)[C@H](CCCCNC(=O)CC[C@H](NC(=O)CCCCCCCCCCCCCCCCC(=O)O)C(=O)O)NC(=O)[C@H](C)NC(=O)C(C)(C)NC(=O)[C@H](CCCNC(=N)N)NC(=O)[C@H](CO)NC(=O)[C@H](CC(=O)O)NC(=O)[C@H](CC(C)C)NC(=O)[C@](C)(Cc1ccccc1)NC(=O)[C@H](CCCCN)NC(=O)[C@H](CO)NC(=O)[C@@H](NC(=O)[C@H](CC(=O)O)NC(=O)[C@H](CO)NC(=O)[C@@H](NC(=O)[C@](C)(Cc1ccccc1)NC(=O)[C@H](CO)NC(=O)CNC(=O)[C@H](Cc1c[nH]cn1)NC(=O)C(C)(C)NC(=O)[C@@H](N)Cc1c[nH]cn1)[C@@H](C)O)C(C)C)C(C)C)C(=O)N[C@@H](C)C(=O)N[C@@H](CC(N)=O)C(=O)N[C@H](C(N)=O)[C@@H](C)O [Peptide 254] (H-H[Aib]HGS[αMeF]TSDVSK[αMeF]LDSR[Aib]AK([γGlu-C18 diacid])DFVESIANT-NH2)
